Measurements as given in patent US11518760B2 (Liverpool School of Tropical Medicine, priority 2017, dated 2022).

System: C6/36 Aedes albopictus cell line infected with Wolbachia pipientis (Wolbachia strain wAlbB)
Test: In vitro insect cell line assay (anti-Wolbachia screen, SYTO 11 high content imaging)
Format: cell-based
Conditions: 168 h; C6/36 Aedes albopictus cells infected with Wolbachia pipientis wAlbB, 7 days incubation, SYTO 11 imaging; read-out: In vitro anti-Wolbachia activity
Method: A C6/36 Aedes albopictus cell line infected with Wolbachia pipientis (Wolbachia strain wAlbB) derived from Aa23 A. albopictus cell line (O'Neill et al., 1997; Insect Mol Biol; Turner et al., (2006) J. Immunol. 7:1240-1249) was used to screen compounds. Cells were cultured in Leibovitz's L15+L-glutamine supplemented with heat-inactivated Foetal Calf Serum (HI-FCS), non-essential amino acids and tryptose phosphate broth. Culture medium was filter-sterilized through a 0.2 μm filter and stored at 4° C. Compounds were provided as 10 mM stocks in DMSO, diluted to 50 μM working stock to give final concentration of 5 μM on the test plate. Concentrated stocks were frozen at −20° C.
Prior to use in the screening assay, cell cultures were sub-passaged (6 days prior) to provide ˜90% confluent cells on Day 0 of screening assay. On Day 0 (assay set-up), the medium was removed from the stock culture flask and replaced with fresh medium. The cells were detached by scraping and cell density was calculated using an automated cell counter. The cells were then diluted at working density and aliquoted at 90 μl to each well of a Cell Carrier 384 well plate (Perkin Elmer). Cell plates were incubated at 26° C.
Control solution (DMSO-medium) was dispensed at 10 μl per well for “untreated” wells. Test solution (Drug-DMSO) was also dispensed at 10 μl (from working plate) per well for “treated” wells. The plates were incubated at 26° C., inside plastic wallet in incubator, for 7 days.
On Day 7, 25 μl of staining medium/dye (SYTO 11, Life Technologies) was added to each sample well and allowed to stain for 15 minutes in the dark. All the medium was removed from each sample well without disturbing the cells and replaced with 100 μl of fresh medium. Plates were imaged on the Operetta High Content Imaging system (Perkin Elmer) and analyzed using texture analysis through Harmony software (Perkin Elmer). The cell-based screen and analysis are described in detail in Clare et al. (2014) J Biomol Screen.

CC(Nc1ncnc2cc(I)sc12)c1ccccc1C(F)(F)F (stereo not drawn) [Example 96, 6-iodo-N-(1-(2-(trifluoromethyl)phenyl)ethyl)thieno[3,2-d]pyrimidin-4-amine]
EC50: 1000 to 100000 nM

CS(=O)(=O)c1ccccc1CNc1ncnc2ccsc12 [Example 97, N-(2-(methylsulfonyl)benzyl)thieno[3,2-d]pyrimidin-4-amine]
EC50: 100 to 1000 nM

CC(Nc1ncnc2cc(-c3ccccc3)sc12)c1ccccc1C(F)(F)F (stereo not drawn) [Example 98, 6-phenyl-N-(1-(2-(trifluoromethyl)phenyl)ethyl)thieno[3,2-d]pyrimidin-4-amine]
EC50: 1000 to 100000 nM

CC(Nc1ncnc2cc(C3CC3)sc12)c1ccccc1C(F)(F)F (stereo not drawn) [Example 99, 6-cyclopropyl-N-(1-(2-(trifluoromethyl)phenyl)ethyl)thieno[3,2-d]pyrimidin-4-amine]
EC50: 1000 to 100000 nM

CC(Nc1ncnc2cc(Cl)sc12)c1ccccc1C(F)(F)F (stereo not drawn) [Example 101]
EC50: 1000 to 100000 nM

CC(Nc1ncnc2cc(C#N)sc12)c1ccccc1C(F)(F)F (stereo not drawn) [Example 102, 4-((1-(2-(trifluoromethyl)phenyl)ethyl)amino)thieno[3,2-d]pyrimidine-6-carbonitrile]
EC50: 1000 to 100000 nM

FC(F)(F)c1ncccc1CNc1ncnc2ccsc12 [Example 103, N-((2-(trifluoromethyl)pyridin-3-yl)methyl)thieno[3,2-d]pyrimidin-4-amine]
EC50: 10 to 100 nM

N#Cc1ccccc1CNc1nc(Cl)nc2ccsc12 [Example 104, 2-(((2-chlorothieno[3,2-d]pyrimidin-4-yl)amino)methyl)benzonitrile]
EC50: 100 to 1000 nM

Cc1csc2c(NC(C)c3ccccc3C(F)(F)F)ncnc12 (stereo not drawn) [Example 105, 7-methyl-N-(1-(2-(trifluoromethyl)phenyl)ethyl)thieno[3,2-d]pyrimidin-4-amine]
EC50: 1000 to 100000 nM

CC(Nc1ncnc2c(Br)csc12)c1ccccc1C(F)(F)F (stereo not drawn) [Example 106, 7-bromo-N-(1-(2-(trifluoromethyl)phenyl)ethyl)thieno[3,2-d]pyrimidin-4-amine]
EC50: 1000 to 100000 nM

CC(Nc1ncnc2c(C#N)csc12)c1ccccc1C(F)(F)F (stereo not drawn) [Example 108, 4-((1-(2-(trifluoromethyl)phenyl)ethyl)amino)thieno[3,2-d]pyrimidine-7-carbonitrile]
EC50: 1000 to 100000 nM

CC(C)Nc1nc(NCc2ccc(C(F)(F)F)cc2)c2sccc2n1 [Example 109, N^2-isopropyl-N^4-(4-(trifluoromethyl)benzyl)thieno[3,2-d]pyrimidine-2,4-diamine]
EC50: 1000 to 100000 nM

CC(C)Nc1nc(NCc2ccc(S(C)(=O)=O)cc2)c2ccccc2n1 [Example 110, N^2-isopropyl-N^4-(4-(methylsulfonyl)benzyl)quinazoline-2,4-diamine]
EC50: 1000 to 100000 nM

CC(C)Nc1nc(NCc2ccc(C(F)(F)F)cc2)c2ccccc2n1 [Example 111, N^2-isopropyl-N^4-(4-(trifluoromethyl)benzyl)quinazoline-2,4-diamine]
EC50: 1000 to 100000 nM

CC(C)Nc1nc(NCc2ccccc2S(C)(=O)=O)c2ccccc2n1 [Example 112, N^2-isopropyl-N^4-(2-(methylsulfonyl)benzyl)quinazoline-2,4-diamine]
EC50: 100 to 1000 nM

CS(=O)(=O)c1ccccc1CNc1nc(Cl)nc2ccccc12 [Example 113]
EC50: 1000 to 100000 nM

CC(C)Nc1nc(NCc2ccc(C(F)(F)F)nc2)c2ccccc2n1 [Example 114, N^2-isopropyl-N^4-((6-(trifluoromethyl)pyridin-3-yl)methyl)quinazoline-2,4-diamine]
EC50: 100 to 1000 nM

FC(F)(F)c1ccc(CNc2nc(Cl)nc3ccccc23)cn1 [Example 115]
EC50: 1000 to 100000 nM

CC(C)Nc1nc(NCc2ccc(C#N)cc2)c2sccc2n1 [Example 116, N^4-(4-cyanobenzyl)-N^2-isopropylthieno[3,2-d]pyrimidine-2,4-diamine]
EC50: 100 to 1000 nM

CC(C)Nc1nc(NCc2ccccc2S(C)(=O)=O)c2sccc2n1 [Example 117, N^2-isopropyl-N^4-(2-(methylsuifonyl)benzyl)thieno[3,2-d]pyrimidine-2,4-diamine]
EC50: 100 to 1000 nM

CC(C)Nc1nc(NCc2ccc(S(C)(=O)=O)cc2)c2sccc2n1 [Example 118, N^2-isopropyl-N^4-(4-(methylsuifonyl)benzyl)thieno[3,2-d]pyrimidine-2,4-diamine]
EC50: 1000 to 100000 nM

CC(C)Nc1nc(NCc2ccc(C(F)(F)F)nc2)c2sccc2n1 [Example 119, N^2-isopropyl-N^4-((6-(trifluoromethyl)pyridin-3-yl)methyl)thieno[3,2-d]pyrimidine-2,4-diamine]
EC50: 100 to 1000 nM

CC(C)Nc1nc(NCc2ccc(C#N)cc2)c2ccccc2n1 [Example 120, N^4-(4-cyanobenzyl)-N^2-isopropylquinazoline-2,4-diamine]
EC50: 100 to 1000 nM

CC(C)Nc1nc(NCc2ccc(C#N)cc2)c2ncccc2n1 [Example 121, N^4-(4-cyanobenzyl)-N^2-isopropylpyrido[3,2-d]pyrimidine-2,4-diamine]
EC50: 1000 to 100000 nM

CC(C)Nc1nc(NCc2ccccc2S(C)(=O)=O)c2ncccc2n1 [Example 122, N^2-isopropyl-N^4-(2-(methylsulfonyl)benzyl)pyrido[3,2-d]pyrimidine-2,4-diamine]
EC50: 1000 to 100000 nM

CC(C)Nc1nc(NCc2ccc(S(C)(=O)=O)cc2)c2ncccc2n1 [Example 123, N^2-isopropyl-N^4-(4-(methylsulfonyl)benzyl)pyrido[3,2-d]pyrimidine-2,4-diamine]
EC50: 1000 to 100000 nM

CC(C)Nc1nc(NCc2ccc(C(F)(F)F)cc2)c2ncccc2n1 [Example 124, N^2-isopropyl-N^4-(4-(trifluoromethyl)benzyl)pyrido[3,2-d]pyrimidine-2,4-diamine]
EC50: 1000 to 100000 nM

CC(C)Nc1nc(NCc2ccc(C(F)(F)F)nc2)c2ncccc2n1 [Example 125, N^2-isopropyl-N^4-((6-(trifluoromethyl)pyridin-3-yl)methyl)pyrido[3,2-d]pyrimidine-2,4-diamine]
EC50: 1000 to 100000 nM

CC(C)Nc1nc(NCc2ccc(C#N)cc2)c2cccnc2n1 [Example 126, N^4-(4-cyanobenzyl)-N^2-isopropylpyrido[2,3-d]pyrimidine-2,4-diamine]
EC50: 100 to 1000 nM

CC(C)Nc1nc(NCc2ccccc2S(C)(=O)=O)c2cccnc2n1 [Example 127, N^2-isopropyl-N^4-(2-(methylsulfonyl)benzyl)pyrido[2,3-d]pyrimidine-2,4-diamine]
EC50: 100 to 1000 nM

CC(C)Nc1nc(NCc2ccc(S(C)(=O)=O)cc2)c2cccnc2n1 [Example 128, N^2-isopropyl-N^4-(4-(methylsulfonyl)benzyl)pyrido[2,3-d]pyrimidine-2,4-diamine]
EC50: 100 to 1000 nM

CC(C)Nc1nc(NCc2ccc(C(F)(F)F)cc2)c2cccnc2n1 [Example 129, N^2-isopropyl-N^4-(4-(trifluoromethyl)benzyl)pyrido[2,3-d]pyrimidine-2,4-diamine]
EC50: 100 to 1000 nM

CC(C)Nc1nc(NCc2ccc(C(F)(F)F)nc2)c2cccnc2n1 [Example 130, N^2-isopropyl-N^4-((6-(trifluoromethyl)pyridin-3-yl)methyl)pyrido[2,3-d]pyrimidine-2,4-diamine]
EC50: 1000 to 100000 nM

COc1ccc(CNc2nc(NC(C)C)nc3ccsc23)cc1 [Example 131, N^2-isopropyl-N^4-(4-methoxybenzyl)thieno[3,2-d]pyrimidine-2,4-diamine]
EC50: 1000 to 100000 nM

COc1ccccc1CNc1nc(NC(C)C)nc2ccsc12 [Example 132, N^2-isopropyl-N^4-(2-methoxybenzyl)thieno[3,2-d]pyrimidine-2,4-diamine]
EC50: 1000 to 100000 nM

COc1ccc(CNc2nc(NC(C)C)nc3ccsc23)cc1OC [Example 133, N^4-(3,4-dimethoxybenzyl)-N^2-isopropylthieno[3,2-d]pyrimidine-2,4-diamine]
EC50: 1000 to 100000 nM

CC(C)Nc1nc(NCc2ccc(F)cc2)c2ccccc2n1 [Example 134, N^4-(4-fluorobenzyl)-N^2-isopropylquinazoline-2,4-diamine]
EC50: 1000 to 100000 nM

CC(C)Nc1nc(NCc2ccccc2F)c2ccccc2n1 [Example 135, N^4-(2-fluorobenzyl)-N^2-isopropylquinazoline-2,4-diamine]
EC50: 1000 to 100000 nM

CC(C)Nc1nc(NCc2ccc(Cl)cc2)c2ccccc2n1 [Example 136, N^4-(4-chlorobenzyl)-N^2-isopropylquinazoline-2,4-diamine]
EC50: 1000 to 100000 nM

CC(C)Nc1nc(NCc2ccccc2Cl)c2ccccc2n1 [Example 137, N^4-(2-chlorobenzyl)-N^2-isopropylquinazoline-2,4-diamine]
EC50: 1000 to 100000 nM

COc1ccc(CNc2nc(NC(C)C)nc3ccccc23)cc1 [Example 138, N^2-isopropyl-N^4-(4-methoxybenzyl)quinazoline-2,4-diamine]
EC50: 1000 to 100000 nM

COc1ccccc1CNc1nc(NC(C)C)nc2ccccc12 [Example 139, N^2-isopropyl-N^4-(2-methoxybenzyl)quinazoline-2,4-diamine]
EC50: 100 to 1000 nM
